Results published in patent publication US20190225643A1, “NOVEL NUCLEOSIDE ANALOGS AND USE THEREOF IN THERAPEUTIC TREATMENT” (CORNELL UNIVERSITY, priority 2016, published 2019).

Legend:
BC3 (PEL) = experiment: cells; assay type: cell-based; details: Homo sapiens; 48 hours, CellTiter-Glo; read-out: LC50 BC3 (PEL)
Description: (§1) Cell viability assays were performed by plating log-phase cells in RPMI complete media with 20% FBS at 1*10^5 cells/mL, with concentrations of 6-ETI or phospho-6-ETI ranging from 0.1 nM to 100 μM. ATP content at 24, 48 and 72 hours post-treatment was measured by the CellTiter-Glo kit (Promega, Madison, Wis.), or by Trypan blue assay as indicated. The LC50 for 6-ETI in each cell line was determined using online EC50 software at changbioscience.com or using GraphPad Prism to determine the LC50 for 6-ETI, phospho-6-ETI and nucleoside analogs in MM cell lines and primary MM patient samples.

U266 (MM) = experiment: cells; assay type: cell-based; details: Homo sapiens, U-266, 48 h, read-out: LC50 U266 (MM) in nM
Description: as §1

IBL-1 (EBV+ DLBCL) = experiment: cells; assay type: cell-based; details: Homo sapiens, 48 h, read-out: LC50 IBL-1 (DLBCL)
Description: as §1

BC3 cells = experiment: Trypan-blue exclusion viability, PEL cell line; assay type: cell-based; details: Homo sapiens, BC-3; selected PEL cell line (BC3), 48 hours; read-out: LC50 by Trypan-blue exclusion
Description: as §1

PEL cells (BC1, BC3) = experiment: Immunoblotting of PARP cleavage, LC3B cleavage and γH2AX in PEL cells; assay type: cell-based, human
Description: For all intracellular signaling studies, cell lines were plated at 2*10^5 cells/mL or at indicated densities in RPMI-1640 with 20% FBS, and treated with the stated concentrations of 6-ETI, from 6 to 48 hours. Immunoblotting was performed using the following antibodies: PARP (BD Pharmingen, 556494), LC3B (Cell Signaling, 2775S), phospho-l-listone H2AX.X S139 (Cell Signaling, 2577S), GAPDH (Gene Tex, GTX100118), ADK (Santa Cruz, sc-365470) vFLIP 6/14 antibody was a gift from Mary Collins at University College of London, vCyclin (Abcam, ab12208), LANA (Advanced Biotechnologies, 13-210-100), β-Actin (Sigma A5316), p65 (Cell Signaling C22B4, p50 (Cell Signaling 3035), October-1 (Cell Signaling 4428), p-IκBα (Santa Cruz 3-9 sc-8404), IκBα (Santa Cruz C-21 sc-371), pIKKα/β (ser 176)(Santa Cruz sc-21661), IKKα (Santa Cruz H-744 sc-7218).

[1] = tested on: p65/p50 binding to the NF-κB response element in BC3 PEL cell line; experiment: EMSA of NF-κB binding in BC3 cells; assay type: cell-based, human
Description: BC3 or LCL9001 cells were plated at 5*10^5 cells/ml, and treated with the hit compounds at 25 μM or with NSC39368 at 5, 10, 25 and 50 μM for 24 hours. Nuclear extracts were obtained as previously described (Keller S. A. et al., Blood. 2000 96(7):2537-42), and electrophoretic mobility shift assays (EMSAs) were performed using an NF-κB-specific oligonucleotide probe.

KSHV- cell lines = experiment: CellTiter-Glo viability assay, KSHV- cell line panel; assay type: cell-based; details: Homo sapiens, 48 h, read-out: LC50
Description: as §1
KSHV+ primary effusion lymphoma (PEL) cell lines (BC1, BC2, BC3, BC5, BCBL1, BCP1), EBV+ lymphoblastoid cell line LCL9001, EBI+ diffuse large B-cell lymphomas (DLBCL) with immunoblastic features (IBL1, IBL4), and EBV+ effusion DLBCL BCKN1 were cultured in RPMI-1640 medium (Invitrogen) supplemented with 50 μg/mL Gentamicin (Sigma-Aldrich) and 10% or 20% heat-inactivated fetal bovine serum, respectively. Uninfected DLBCL cell lines (Ly2, Ly7) were cultured in IMDM (Invitrogen) supplemented with 50 μg/mL Gentamicin and 10% FBS. Multiple myeloma (MM) cell lines U266 and MM1S were cultured in RPMI supplemented with 15%FBS and 50 μg/mL Gentamicin, while JJN3 was cultured in 40% IMDM/40% DMEM plus 20% FBS supplemented with 50 μg/mL Gentamicin. […]

[2] = 200 mg/kg for 9 days; cited from earlier work

Molecule `CCSc1ncnc2c1ncn2[C@@H]1O[C@H](CO)C(O)[C@@H]1O` (some centres unmarked) [Compound 6-ETI, 6-ethylthioinosine] has a CC50 (BC3 (PEL)) of 49.8 nM, a CC50 (U266 (MM)) of 437 nM and a CC50 (IBL-1 (EBV+ DLBCL)) of over 100000 nM. The CC50 (BC3 cells) was 74 nM, the “DNA damage marker γH2AX” value (PEL cells (BC1, BC3); 1 μM and 10 μM, 24 hours) was “appearance of γH2AX” and the “autophagy (LC3B cleavage product)” value (PEL cells (BC1, BC3); 1 μM, 24 hr) was “some induction of autophagy”. For the same molecule, the “apoptosis (PARP cleavage)” value (PEL cells (BC1, BC3); BC1 and BC3, 1 μM, 24 hrs) was “small but observable increases in apoptosis”, the “inhibition of active heterodimer p65/p50 binding to the NF-κB response element” value ([1]; BC3, 24 hours) was “effectively inhibited” and the “doses effective in inhibiting NF-κB in PELs” value ([1]; PEL cells) was 10 to 50 µM. For the same molecule, the CC50 (KSHV- cell lines) was 10000 to 80000 nM and the reported toxicities [2] was “no reported toxicities”.
